The values that follow come from patent US20160376240A1, “6 Phenyl or 6 Pyridin 3 YL Indazole Derivatives and Methods of Use” (ABBVIE INC., priority 2014, published 2016).

In general, IC50 refers to the midpoint of a concentration-inhibition curve.

The target of this experiment is T1, TrkA (Homo sapiens, UniProt P04629).
T1 construct: purchased Invitrogen PV3144
Description: TrkA kinase inhibition, HTRF assay. Type of experiment: biochemical. The settings on record: LCK peptide substrate 125 nM, TrkA 2-10 nM pre-incubated with ATP 200 μM. The gist of the method: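 TrkA (2-10 nM) preactivated 20 min with 200 μM ATP in HEPES pH 7.4 with Mg2+/Mn2+, then compound for 10 min, then 125 nM biotinylated LCK-peptide for 1 h at ambient temperature. HTRF 665/620 ratio read; IC50 fitted from initial-rate percent inhibition.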

T1 sequence (P04629 33-796): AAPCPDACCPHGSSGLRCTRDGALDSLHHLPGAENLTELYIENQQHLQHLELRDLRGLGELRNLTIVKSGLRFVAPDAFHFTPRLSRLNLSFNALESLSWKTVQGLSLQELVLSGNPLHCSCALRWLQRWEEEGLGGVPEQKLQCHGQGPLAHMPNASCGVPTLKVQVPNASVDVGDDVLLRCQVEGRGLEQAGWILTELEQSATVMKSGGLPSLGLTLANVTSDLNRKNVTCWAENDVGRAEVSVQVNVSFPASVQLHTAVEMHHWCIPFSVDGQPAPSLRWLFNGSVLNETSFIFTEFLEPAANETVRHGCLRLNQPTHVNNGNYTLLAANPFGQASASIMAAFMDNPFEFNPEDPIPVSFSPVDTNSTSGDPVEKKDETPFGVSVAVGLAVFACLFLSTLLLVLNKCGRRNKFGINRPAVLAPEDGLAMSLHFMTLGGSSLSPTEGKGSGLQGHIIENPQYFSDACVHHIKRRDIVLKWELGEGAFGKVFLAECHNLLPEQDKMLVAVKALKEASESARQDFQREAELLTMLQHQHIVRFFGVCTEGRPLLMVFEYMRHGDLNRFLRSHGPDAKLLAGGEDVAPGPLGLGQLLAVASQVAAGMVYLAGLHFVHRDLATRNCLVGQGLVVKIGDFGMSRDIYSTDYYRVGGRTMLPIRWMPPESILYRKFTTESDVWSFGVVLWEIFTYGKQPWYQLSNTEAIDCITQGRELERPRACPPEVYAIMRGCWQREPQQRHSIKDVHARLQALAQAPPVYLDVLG

For the compound `CNC(=O)c1ccc(-c2cc(OC3CCCC3)c3c(C)n[nH]c3c2)cc1N1CCN(C2CCCCC2)CC1` [Example 121, 2-(4-cyclohexylpiperazin-1-yl)-4-[4-(cyclopentyloxy)-3-methyl-1H-indazol-6-yl]-N-methylbenzamide], the IC50 was determined as 17.3 nM. In other words, the double-digit nanomolar range.
`CNC(=O)c1ccc(-c2cc(OC3CCOCC3)c3c(C)n[nH]c3c2)cc1N1CCN(C(=O)OC(C)(C)C)CC1` [Example 122, tert-butyl 4-{2-(methylcarbamoyl)-5-[3-methyl-4-(tetrahydro-2H-pyran-4-yloxy)-1H-indazol-6-yl]phenyl}piperazine-1-carboxylate] registered an IC50 of 8.14 nM. This IC50 is about 2.1-fold lower than that of the compound before.
To `CNC(=O)c1ccc(-c2cc(OC3CCOCC3)c3c(C)n[nH]c3c2)cc1N1CCN(Cc2cccnc2)CC1` [Example 123, N-methyl-4-[3-methyl-4-(tetrahydro-2H-pyran-4-yloxy)-1H-indazol-6-yl]-2-[4-(pyridin-3-ylmethyl)piperazin-1-yl]benzamide] belongs 3.75 nM; to `CNC(=O)c1ccc(-c2cc(OC3CCOCC3)c3c(C)n[nH]c3c2)cc1N1CCN(C(=O)C2CC2)CC1` [Example 124, 2-[4-(cyclopropylcarbonyl)piperazin-1-yl]-N-methyl-4-[3-methyl-4-(tetrahydro-2H-pyran-4-yloxy)-1H-indazol-6-yl]benzamide], 19.2 nM; to `CNC(=O)c1ccc(-c2cc(OC3CCOCC3)c3c(C)n[nH]c3c2)cc1OCCOC1CCCCC1` [Example 126, 2-[2-(cyclohexyloxy)ethoxy]-N-methyl-4-[3-methyl-4-(tetrahydro-2H-pyran-4-yloxy)-1H-indazol-6-yl]benzamide], 4.74 nM.
In the case of `CC(=O)Nc1ccc(-c2cc(OC3CCCC3)c3c(C)n[nH]c3c2)cc1NCCOc1ccccc1` [Example 127, N-{4-[4-(cyclopentyloxy)-3-methyl-1H-indazol-6-yl]-2-[(2-phenoxyethyl)amino]phenyl}acetamide] it was 49 nM.
In the case of `CNC(=O)c1ccc(-c2cc(OC3CCCC3)c3c(C)n[nH]c3c2)cc1N1CCN(C(=O)OCC(C)C)CC1` [Example 128, isobutyl 4-{5-[4-(cyclopentyloxy)-3-methyl-1H-indazol-6-yl]-2-(methylcarbamoyl)phenyl}piperazine-1-carboxylate] it was 214 nM; in that of `CNC(=O)c1ccc(-c2cc(OC3CCCC3)c3c(C)n[nH]c3c2)cc1N1CCN(C(=O)OCc2ccccc2)CC1` [Example 129, benzyl 4-{5-[4-(cyclopentyloxy)-3-methyl-1H-indazol-6-yl]-2-(methylcarbamoyl)phenyl}piperazine-1-carboxylate], 50.8 nM.
As for `C=CC(=O)Nc1ccc(-c2cc(OC3CCOCC3)c3c(C)n[nH]c3c2)cc1N1CCN(C2CCCCC2)CC1` [Example 131, N-{2-(4-cyclohexylpiperazin-1-yl)-4-[3-methyl-4-(tetrahydro-2H-pyran-4-yloxy)-1H-indazol-6-yl]phenyl}acrylamide], the IC50 was 46.9 nM.
To `Cc1n[nH]c2cc(-c3ccc(C(N)=O)cc3)cc(OC3CCOCC3)c12` [Example 132, 4-[3-methyl-4-(tetrahydro-2H-pyran-4-yloxy)-1H-indazol-6-yl]benzamide] belongs 34.1 nM; to `CC(=O)C(=O)Nc1ccc(-c2cc(OC3CCOCC3)c3c(C)n[nH]c3c2)cc1N1CCN(C2CCCCC2)CC1` [Example 133, N-{2-(4-cyclohexylpiperazin-1-yl)-4-[3-methyl-4-(tetrahydro-2H-pyran-4-yloxy)-1H-indazol-6-yl]phenyl}-2-oxopropanamide], 15.9 nM.
In the case of `CCOC(=O)N1CCN(c2cc(-c3cc(OC4CCOCC4)c4c(C)n[nH]c4c3)ccc2C(=O)NC)CC1` [Example 134, ethyl 4-{2-(methylcarbamoyl)-5-[3-methyl-4-(tetrahydro-2H-pyran-4-yloxy)-1H-indazol-6-yl]phenyl}piperazine-1-carboxylate] it was 12.7 nM; in that of `CCCOC(=O)N1CCN(c2cc(-c3cc(OC4CCOCC4)c4c(C)n[nH]c4c3)ccc2C(=O)NC)CC1` [Example 135, propyl 4-{2-(methylcarbamoyl)-5-[3-methyl-4-(tetrahydro-2H-pyran-4-yloxy)-1H-indazol-6-yl]phenyl}piperazine-1-carboxylate], 8.29 nM.
To `CNC(=O)c1ccc(-c2cc(OC3CCOCC3)c3c(C)n[nH]c3c2)cc1N1CCN(C(=O)OCC(F)(F)F)CC1` [Example 136, 2,2,2-trifluoroethyl 4-{2-(methylcarbamoyl)-5-[3-methyl-4-(tetrahydro-2H-pyran-4-yloxy)-1H-indazol-6-yl]phenyl}piperazine-1-carboxylate] belongs 18.1 nM.
Compound `CNC(=O)c1ccc(-c2cc(OC3CCOCC3)c3c(C)n[nH]c3c2)cc1N1CCN(C(=O)OCC(C)(C)C)CC1` [Example 137, 2,2-dimethylpropyl 4-{2-(methylcarbamoyl)-5-[3-methyl-4-(tetrahydro-2H-pyran-4-yloxy)-1H-indazol-6-yl]phenyl}piperazine-1-carboxylate] displayed an IC50 of 57.3 nM. This IC50 lies about 3.2-fold higher than the previous one.
In the case of `CNC(=O)c1ccc(-c2cc(OC3CCOCC3)c3c(C)n[nH]c3c2)cc1N1CCN(C(=O)OCCOC)CC1` [Example 138, 2-methoxyethyl 4-{2-(methylcarbamoyl)-5-[3-methyl-4-(tetrahydro-2H-pyran-4-yloxy)-1H-indazol-6-yl]phenyl}piperazine-1-carboxylate] it was 25.1 nM; in that of `Cc1n[nH]c2cc(-c3ccc(C#N)c(N4CCN(C(=O)OC(C)(C)C)CC4)c3)cc(OC3CCOCC3)c12` [Example 139, tert-butyl 4-{2-cyano-5-[3-methyl-4-(tetrahydro-2H-pyran-4-yloxy)-1H-indazol-6-yl]phenyl}piperazine-1-carboxylate], 6.86 nM; in that of `Cc1n[nH]c2cc(-c3ccc(C(N)=O)c(N4CCN(C(=O)OC(C)(C)C)CC4)c3)cc(OC3CCOCC3)c12` [Example 140, tert-butyl 4-{2-carbamoyl-5-[3-methyl-4-(tetrahydro-2H-pyran-4-yloxy)-1H-indazol-6-yl]phenyl}piperazine-1-carboxylate], 31.9 nM.
To `CC(=O)Nc1ccc(-c2cc(OC3CCOCC3)c3c(C)n[nH]c3c2)cc1N1CCN(C(=O)OC(C)(C)C)CC1` [Example 141, tert-butyl 4-{2-acetamido-5-[3-methyl-4-(tetrahydro-2H-pyran-4-yloxy)-1H-indazol-6-yl]phenyl}piperazine-1-carboxylate] belongs 3.77 nM; to `Cc1n[nH]c2cc(-c3ccc(C(N)=O)c(N4CCN(C(=O)OC(C)C)CC4)c3)cc(OC3CCOCC3)c12` [Example 142, isopropyl 4-{2-carbamoyl-5-[3-methyl-4-(tetrahydro-2H-pyran-4-yloxy)-1H-indazol-6-yl]phenyl}piperazine-1-carboxylate], 23.2 nM.
In the case of `CNC(=O)c1ccc(-c2cc(OC3CCOCC3)c3c(C)n[nH]c3c2)cc1N1CCN(CC(F)(F)F)CC1` [Example 143, N-methyl-4-[3-methyl-4-(tetrahydro-2H-pyran-4-yloxy)-1H-indazol-6-yl]-2-[4-(2,2,2-trifluoroethyl)piperazin-1-yl]benzamide] it was 95.8 nM; in that of `CC(=O)Nc1ccc(-c2cc(OC3CCOCC3)c3c(C)n[nH]c3c2)cc1N1CCN(C(=O)C2CCC2)CC1` [Example 144, N-{2-[4-(cyclobutylcarbonyl)piperazin-1-yl]-4-[3-methyl-4-(tetrahydro-2H-pyran-4-yloxy)-1H-indazol-6-yl]phenyl}acetamide], 25.4 nM; in that of `CC(=O)Nc1ccc(-c2cc(OC3CCOCC3)c3c(C)n[nH]c3c2)cc1N1CCN(Cc2ccccc2)CC1` [Example 145, N-{2-(4-benzylpiperazin-1-yl)-4-[3-methyl-4-(tetrahydro-2H-pyran-4-yloxy)-1H-indazol-6-yl]phenyl}acetamide], 12.6 nM.
`CC(=O)Nc1ccc(-c2cc(OC3CCOCC3)c3c(C)n[nH]c3c2)cc1N1CCN(C(=O)OC(C)C)CC1` [Example 146, isopropyl 4-{2-acetamido-5-[3-methyl-4-(tetrahydro-2H-pyran-4-yloxy)-1H-indazol-6-yl]phenyl}piperazine-1-carboxylate] returned an IC50 of 4.43 nM.
To `CC(=O)Nc1ccc(-c2cc(OC3CCOCC3)c3c(C)n[nH]c3c2)cc1OCCNC(=O)OC(C)C` [Example 147, isopropyl (2-{2-acetamido-5-[3-methyl-4-(tetrahydro-2H-pyran-4-yloxy)-1H-indazol-6-yl]phenoxy}ethyl)carbamate] belongs 30.9 nM.
In the case of `CC(=O)Nc1ccc(-c2cc(OC3CCOCC3)c3c(C)n[nH]c3c2)cc1N1CCN(Cc2cccnc2)CC1` [Example 148, N-{4-[3-methyl-4-(tetrahydro-2H-pyran-4-yloxy)-1H-indazol-6-yl]-2-[4-(pyridin-3-ylmethyl)piperazin-1-yl]phenyl}acetamide] it was 34.6 nM; in that of `CC(=O)Nc1ccc(-c2cc(OC3CCOCC3)c3c(C)n[nH]c3c2)cc1N1CCN(Cc2cccc(F)c2)CC1` [Example 149, N-{2-[4-(3-fluorobenzyl)piperazin-1-yl]-4-[3-methyl-4-(tetrahydro-2H-pyran-4-yloxy)-1H-indazol-6-yl]phenyl}acetamide], 25 nM.
As for `CC(=O)Nc1ccc(-c2cc(OC3CCOCC3)c3c(C)n[nH]c3c2)cc1N1CCN(Cc2ccc(Cl)o2)CC1` [Example 150, N-(2-{4-[(5-chloro-2-furyl)methyl]piperazin-1-yl}-4-[3-methyl-4-(tetrahydro-2H-pyran-4-yloxy)-1H-indazol-6-yl]phenyl)acetamide], the IC50 was determined as 74.5 nM. This IC50 is about 3-fold higher than that of the compound before.
To `CC(=O)Nc1ccc(-c2cc(OC3CCOCC3)c3c(C)n[nH]c3c2)cc1N1CCN(C(=O)NC(C)C)CC1` [Example 151, 4-{2-acetamido-5-[3-methyl-4-(tetrahydro-2H-pyran-4-yloxy)-1H-indazol-6-yl]phenyl}-N-isopropylpiperazine-1-carboxamide] belongs 166 nM.
